Laboratory results: BindingDB's records for doi:10.1016/j.bmc.2017.06.049 (Federal University of Alagoas, 2017)

Test: Inhibition of Chikungunya virus nsP2 protease infected in African green monkey Vero cells assessed as inhibition of viral-induced cytopathic effect by titration assay

| SMILES | EC50 [µM] |
| --- | --- |
| CCOc1ccc(/C=N/NC(=O)C2CC2c2ccc(C(C)(C)C)cc2)cc1OCC (configuration not stated) | 5 |
| CCOc1ccc(/C=N/NC(=O)/C=C/Cc2ccc(C(C)(C)C)cc2)cc1OCC | 3.2 |
